Columns and labels:
[1] = test system: CYPs; details: earlier pharmacokinetic studies; cited from earlier work
[2] = earlier pharmacokinetic studies; cited from earlier work
[3] = PAMPA-BBB assay; details: in-house conditions; 17 h, 200 μM, 25 °C, triplicate

| SMILES | CYPs inhibition [1] | human microsome metabolism [2] | Determined Pe [3] |
| --- | --- | --- | --- |
| CNCCCc1cncc(CCc2cc(C)cc(N)n2)c1 [Compound 6] | very poor | little |  |
| CNCc1cccc(-c2cncc(CCc3cc(C)cc(N)n3)c2)c1 [Compound 16, 4-Methyl-6-(2-(5-(3-((methylamino)methyl)phenyl)pyridin-3-yl)ethyl)pyridin-2-amine] |  |  | 5.56 10^−6 cm s^−1 |
| CNCc1cccc(-c2cc(F)cc(CCc3cc(C)cc(N)n3)c2)c1 [Compound 18, 6-(2-(5-Fluoro-3′-((methylamino)methyl)-[1,1′-biphenyl]-3-yl)ethyl)-4-methylpyridin-2-amine] |  |  | 17.41 10^−6 cm s^−1 |
| CNCCCN1c2ccccc2CCc2ccccc21 [Desipramine] |  |  | 20.52 ± 0.64 10^−6 cm s^−1 |
| Cn1c(=O)c2[nH]cnc2n(C)c1=O.O [Theophylline] |  |  | 0.15 ± 0.04 10^−6 cm s^−1 |

Reference: publication PMC5699933 (Journal of medicinal chemistry, 2017)
